Data as given in article PMC8954547, “Nonpeptidic Z360-Analogs Tagged with Trivalent Radiometals as Anti-CCK2R Cancer Theranostic Agents: A Preclinical Study” (Pharmaceutics, 2022).

Columns and labels:
[1] = system: SCID mice bearing twin HEK293-CCK2i4svR and wtHEK293 tumors; experiment: Biodistribution in SCID mice bearing twin HEK293-CCK2i4svR and wtHEK293 xenografts; assay type: in vivo
Procedure: Inocula containing a suspension of freshly harvested HEK293-CCK2i4svR/wtHEK293 cells (150 μL, 1.8 × 10^7/1.4 × 10^7 cells, respectively, in normal saline) were subcutaneously (sc) injected in the right and left flanks of male SCID mice (24.5 ± 2.3 g body weight, six weeks of age on arrival day, NCSR “Demokritos” Animal House Facility). Well-palpable tumors (0.42 ± 0.37/0.25 ± […], respectively) were grown at the inoculation site 3–4 weeks later, and biodistribution was conducted. On the day of biodistribution, animals were divided into groups of four and received the radioligand through the tail vein as a bolus (100 μL, containing each of: i. 78–91 kBq [^67Ga]GAS1/2/3 corresponding to 7–17 pmol GAS1/2/3; ii. 74–92 kBq [^111In]GAS1/2/3 corresponding to 20–25 pmol GAS1/2/3; iii. 730 kBq [^177Lu]Lu-GAS1/3 corresponding to 40 pmol GAS1/3, in-vehicle: saline/EtOH 9/1 v/v). Animals were euthanized at predetermined time intervals depending upon the radionuclide applied (for [^67Ga]Ga-GAS1/2/3: 1, 4 and 24 h pi; for [^111In]In-GAS1/2/3: 4 and 24 h pi–two extra groups of mice receiving gelofusine together with [^111In]In-GAS1/2 at 4 and 24 h pi were included; and for [^177Lu]Lu-GAS1/3: 4, 24, 48, 72 and 96 h pi). Mice were dissected, and blood samples, organs of interest and tumors were rapidly collected, weighted and counted in the gamma counter. Biodistribution data was calculated as the percentage of the administered dose per gram tissue (%IA/g) with the aid of suitable standards of the administered dose and the Microsoft Excel program. Results are presented as mean % IA/g values ± SD, n = 4 per time point, as determined by the PRISM^TM 6.0 GraphPad software (San Diego, CA, USA).

HEK293-CCK2i4svR cells = experiment: Radioligand uptake and internalization in HEK293-CCK2i4svR cells; assay type: cell-based, human; details: 1 h 37 °C, specific, of total added activity
Procedure: A day before the experiment, HEK293-CCK2i4svR cells were seeded in six-well plates. The next day, cells were rinsed with ice-cold internalization medium (IM: DMEM Glutamax-I, supplemented by 1% (v/v) FBS) and then the fresh medium was added (1.2 mL) at 37 °C. A further portion of IM (150 µL) was added in the upper well-row, and DG2 solution in IM (150 µL) was added in the lower row (to a final concentration of 1 μM; non-specific series). Each of the test radioligands, [^67Ga]Ga/[^111In]In/[^177Lu]Lu-GAS1/3 and [^67Ga]Ga/[^111In]In-GAS2, was finally added (250 fmol total conjugates in 150 μL 0.5% BSA-PBS) in all the wells and the plates were incubated at for 1 h at 37 °C in an Incubator-Orbital Shaker unit (MPM Instr. SrI, Bernareggio, MI, Italy); [^111In]In-GAS1/2/3 were incubated for 15 min, 30 min, 1 h and 2 h. At the predetermined time points, the plates were placed on ice, the medium was collected, and the plates were rinsed with 0.5% BSA-PBS (1 mL). Cells were subsequently treated with an acid-wash solution (2 × 600 µL; 50 mM glycine buffer pH 2.8, 0.1 M NaCl) and the fractions collected (membrane-bound). After briefly washing with 0.5% BSA-PBS (1 mL), the cells were lysed with 1 N NaOH (2 × 600 µL), and the fractions were collected (internalized). The radioactivity content of collected fractions was counted in the gamma counter, and the percentage of internalized and membrane-bound fractions per time point were calculated with Microsoft Excel. Specific internalized and membrane-bound counts were determined by subtracting the respective non-specific (in the presence of 1 μM DG2) from the respective total counts. Results represent specific internalized/membrane bound ± SD of total added radioactivity per well from three experiments performed in triplicate.

SMILES: CC(C)(C)C(=O)CN1C(=O)[C@H](NC(=O)Nc2cccc(C(=O)NCCOCCOCCOCCNC(=O)[C@H](CCC(=O)O)NC(=O)CCC(C(=O)O)N3CCN(CC(=O)[O-])CCN(CC(=O)[O-])CCN(CC(=O)[O-])CC3)c2)CN(C2CCCCC2)c2ccccc21.[67Ga+3] (stereo in doubt) [[^67Ga]Ga-GAS3]
- Biodistribution, Blood ([1]; 1 h pi): 8.61 ± 1.17 %IA/g
- Biodistribution, CCK2i4svR(+) Tumor ([1]; 1 h pi): 21.75 ± 4.90 %IA/g
- Biodistribution, CCK2i4svR(-) Tumor ([1]; 1 h pi): 2.52 ± 0.28 %IA/g
- Biodistribution, Femur ([1]; 1 h pi): 1.60 ± 0.31 %IA/g
- Biodistribution, Heart ([1]; 1 h pi): 2.23 ± 0.38 %IA/g
- Biodistribution, Intestines ([1]; 1 h pi): 1.53 ± 0.19 %IA/g
- Biodistribution, Kidneys ([1]; 1 h pi): 9.09 ± 1.51 %IA/g
- Biodistribution, Liver ([1]; 1 h pi): 5.62 ± 0.40 %IA/g
- Biodistribution, Lungs ([1]; 1 h pi): 4.32 ± 0.58 %IA/g
- Biodistribution, Muscle ([1]; 1 h pi): 0.82 ± 0.14 %IA/g
- Biodistribution, Pancreas ([1]; 1 h pi): 2.51 ± 0.22 %IA/g
- Biodistribution, Spleen ([1]; 1 h pi): 1.96 ± 0.13 %IA/g
- Biodistribution, Stomach ([1]; 1 h pi): 1.51 ± 0.13 %IA/g
- Biodistribution, Blood ([1]; 4 h pi): 2.23 ± 0.39 %IA/g
- Biodistribution, CCK2i4svR(+) Tumor ([1]; 4 h pi): 20.39 ± 3.96 %IA/g
- Biodistribution, CCK2i4svR(-) Tumor ([1]; 4 h pi): 1.15 ± 0.18 %IA/g
- Biodistribution, Femur ([1]; 4 h pi): 0.78 ± 0.10 %IA/g
- Biodistribution, Heart ([1]; 4 h pi): 0.76 ± 0.07 %IA/g
- Biodistribution, Intestines ([1]; 4 h pi): 1.59 ± 0.19 %IA/g
- Biodistribution, Kidneys ([1]; 4 h pi): 7.86 ± 0.48 %IA/g
- Biodistribution, Liver ([1]; 4 h pi): 4.97 ± 0.74 %IA/g
- Biodistribution, Muscle ([1]; 4 h pi): 0.25 ± 0.05 %IA/g
- Biodistribution, Pancreas ([1]; 4 h pi): 0.77 ± 0.11 %IA/g
- Biodistribution, Spleen ([1]; 4 h pi): 1.60 ± 0.39 %IA/g
- Biodistribution, Stomach ([1]; 4 h pi): 0.61 ± 0.12 %IA/g
- Biodistribution, Blood ([1]; 24 h pi): 0.14 ± 0.02 %IA/g
- Biodistribution, CCK2i4svR(+) Tumor ([1]; 24 h pi): 5.37 ± 1.00 %IA/g
- Biodistribution, CCK2i4svR(-) Tumor ([1]; 24 h pi): 0.61 ± 0.08 %IA/g
- Biodistribution, Femur ([1]; 24 h pi): 0.52 ± 0.07 %IA/g
- Biodistribution, Heart ([1]; 24 h pi): 0.17 ± 0.02 %IA/g
- Biodistribution, Intestines ([1]; 24 h pi): 0.39 ± 0.06 %IA/g
- Biodistribution, Kidneys ([1]; 24 h pi): 1.98 ± 0.45 %IA/g
- Biodistribution, Liver ([1]; 24 h pi): 2.48 ± 0.34 %IA/g
- Biodistribution, Lungs ([1]; 24 h pi): 2.43 ± 1.04 %IA/g
- Biodistribution, Muscle ([1]; 24 h pi): 0.06± 0.00 %IA/g
- Biodistribution, Pancreas ([1]; 24 h pi): 0.17 ± 0.03 %IA/g
- Biodistribution, Spleen ([1]; 24 h pi): 1.67 ± 0.37 %IA/g
- Biodistribution, Stomach ([1]; 24 h pi): 0.19 ± 0.03 %IA/g
- Background clearance / excretion route ([1]; mouse, in vivo): cleared mainly via the kidneys
- Cell uptake (internalized + membrane-bound) (HEK293-CCK2i4svR cells): 4.95 ± 0.51%
